Consider seven compounds from patent US10093644B2, “3-[(Benzo[D][1,3]dioxolan-4-yl)-oxy]-3-arylpropylamine type compounds and applications thereof” (NHWA PHARMA. CORPORATION, priority 2014, dated 2018).

Series [1] is described as follows: Acid stability evaluation in diluted hydrochloric acid. It is filed as physicochemical. The settings on record: 0.1 mol/L hydrochloric acid. Here is the method:
The compound according to the invention was incubated in diluted hydrochloric acid (0.1 mol/L) at 37° C. for 2 h to test the decomposition of the compound (shown as %) and the results were shown as follows.

Series [2] deals with mice. Description: Mice tail suspension test (acquired despair experiment). The settings on record: for immobilized time of mice tail suspension: i.g. (gavage); for ED50: Mus musculus, read-out: tail suspension ED50. It is filed as in vivo.
Series [3] in a line: Therapeutic index evaluation (LD50/ED50). It counts as in vivo. The settings on record: for therapeutic index (swimming): LD50/ED50, swimming ED50; for therapeutic index (tail suspension): LD50/ED50, tail suspension ED50; for LD50: half lethal dose.
For series [4], the system named is mice. Description: Mice forced swimming test (acquired despair experiment). It is filed as in vivo. Conditions: for immobilized time of mice swimming: i.g. (gavage); for ED50: Mus musculus, read-out: swimming ED50.

Each structure is given as a SMILES string. Values joined by “and” are separate entries in the source; they are usually repeats but may differ in a detail not shown here. Identical values can stand only once. Like-named read-outs stand apart in the source and are kept apart here.

With `CNCCC(Oc1cccc2c1OCO2)c1cccs1` (centres unmarked) [ammuxetine, reference compound], the “ratio of the compound after incubation in diluted hydrochloric acid at 37° C. for 2 h” value (“ratio of the compound after incubation” below) in series [1] came out at 44%. Further, in the series on mice [2] (half effective dose), the “tail suspension ED50” value is given as 3.89 mg/kg. Further, in series [3], the “therapeutic index (swimming)” value is on record as 68.9; the “therapeutic index (tail suspension)” value worked out at 45.7; the median lethal dose (LD50) (in general, the dose at which mortality reaches 50%) is recorded as 177.8 mg/kg. Further, in the series on mice [4] (half effective dose), the “swimming ED50” value was 2.58 mg/kg.

On to `CNCCC(Oc1cccc2c1OCO2)c1ccccc1.O=C(O)C(=O)O` (centres unmarked) [compound 2, 3-[(benzo[d][1,3]dioxolan-4-yl)-oxy]-N-methyl-3-phenylpropylamine oxalate], for which the “ratio of the compound after incubation” value in series [1] amounted to 99%. In addition, the “immobilized time of mice tail suspension” value came to 44.3 ± 34.5 s in the series on mice [2] (5 mg/kg, oxalate form) and 8.2 ± 13.7 s in the series on mice [2] (10 mg/kg, oxalate form). Further, the median effective dose (ED50) – broadly, the midpoint of the dose-response relation – was 7.06 mg/kg in the series with mice [2] (half effective dose) and 2 mg/kg in the series on mice [4] (half effective dose). Besides, the “therapeutic index (swimming)” value in series [3] was determined as 88.8. For the same compound, the “therapeutic index (tail suspension)” value in series [3] amounted to 25.2. In addition, in series [3] (in vivo, read-out: LD50), the LD50 is 178 mg/kg. For the same compound, the “immobilized time of mice swimming” value in the series with mice [4] (5 mg/kg, oxalate form) is 38.9 ± 34.5 s; in the series with mice [4] (10 mg/kg, oxalate form), 28.6 ± 19.3 s.

With `CN(C)CCC(Oc1cccc2c1OCO2)c1ccc(F)cc1.O=C(O)C(=O)O` (centres unmarked) [compound 3, 3-[(benzo[d][1,3]dioxolan-4-yl)-oxy]-3-(4-fluorophenyl)-N,N-dimethylpropylamine oxalate], the “ratio of the compound after incubation” value in series [1] was 99%. For the same compound, the “immobilized time of mice tail suspension” value in the series with mice [2] (5 mg/kg, oxalate form) worked out at 22.0 ± 28.2 s; in the series with mice [2] (10 mg/kg, oxalate form), 9.2 ± 13.3 s. The median effective dose (ED50) in the series on mice [2] (half effective dose) was found to be 4.32 mg/kg; in the series with mice [4] (half effective dose), 2.28 mg/kg. Further, the “therapeutic index (swimming)” value in series [3] amounted to 155.6. Besides, the “therapeutic index (tail suspension)” value in series [3] amounted to 82.2. In series [3] (in vivo, read-out: LD50), the LD50 came out at 355 mg/kg. The “immobilized time of mice swimming” value in the series with mice [4] (5 mg/kg, oxalate form) is given as 42.0 ± 56.1 s; in the series on mice [4] (10 mg/kg, oxalate form), 31.0 ± 54.2 s.

On to `CNCCC(Oc1cccc2c1OCO2)c1ccc(F)cc1.O=C(O)C(=O)O` (centres unmarked) [compound 4, 3-[(benzo[d][1,3]dioxolan-4-yl)-oxy]-3-(4-fluorophenyl)-N-methylpropylamine oxalate], for which the “ratio of the compound after incubation” value in series [1] stood at 99%. For the same compound, the “immobilized time of mice tail suspension” value in the series on mice [2] (5 mg/kg, oxalate form) came out at 21.4 ± 12.8 s; in the series with mice [2] (10 mg/kg, oxalate form) it was 29.6 ± 13.1 s. Also, the “immobilized time of mice swimming” value with mice [4] (5 mg/kg, oxalate form) amounted to 74.1 ± 36.8 s; in the series with mice [4] (10 mg/kg, oxalate form) it was 60.1 ± 42.2 s.

On to `CNCCC(Oc1cccc2c1OCO2)c1cccc(OC)c1.O=C(O)C(=O)O` (centres unmarked) [compound 12, 3-[(benzo[d][1,3]dioxolan-4-yl)-oxy]-3-(3-methoxylphenyl)-N-methylpropylamine oxalate], for which the “ratio of the compound after incubation” value in series [1] came to 99%. Moreover, the “immobilized time of mice tail suspension” value is recorded as 64.1 ± 24.5 s with mice [2] (5 mg/kg, oxalate form) and 33.0 ± 15.6 s in the series with mice [2] (10 mg/kg, oxalate form). Besides, the 50% effective dose (ED50) in the series with mice [2] (half effective dose) was 8.57 mg/kg; in the series on mice [4] (half effective dose) it was 5.28 mg/kg. Also, the “therapeutic index (swimming)” value in series [3] is 60.7. In addition, in series [3], the “therapeutic index (tail suspension)” value amounted to 37.4. Moreover, the median lethal dose (LD50) in series [3] (in vivo, read-out: LD50) worked out at 320 mg/kg. For the same compound, the “immobilized time of mice swimming” value in the series with mice [4] (5 mg/kg, oxalate form) is reported as 92.0 ± 45.5 s; in the series with mice [4] (10 mg/kg, oxalate form), 58.2 ± 45.3 s.

`Cc1cccc(C(CCN(C)C)Oc2cccc3c2OCO3)c1.O=C(O)C(=O)O` (centres unmarked) [compound 13, 3-[(benzo[d][1,3]dioxolan-4-yl)-oxy]-3-(3-methylphenyl)-N,N-dimethylpropylamine oxalate]: the “ratio of the compound after incubation” value in series [1] came to 99%. In addition, the “immobilized time of mice tail suspension” value was determined as 71.3 ± 32.7 s in the series with mice [2] (5 mg/kg, oxalate form) and 29.8 ± 21.3 s with mice [2] (10 mg/kg, oxalate form). The “immobilized time of mice swimming” value in the series on mice [4] (5 mg/kg, oxalate form) is given as 87.9 ± 55.6 s; in the series on mice [4] (10 mg/kg, oxalate form), 60.2 ± 38.6 s.

Take `CNCC[C@H](Oc1cccc2ccccc12)c1cccs1` [duloxetine, reference compound]: the “ratio of the compound after incubation” value in series [1] came out at 18%. The “immobilized time of mice tail suspension” value with mice [2] (10 mg/kg, oxalate form) is reported as 34.7 ± 42.3 s; in the series on mice [2] (20 mg/kg), 17.8 ± 18.5 s. Also, the 50% effective dose (ED50) in the series on mice [2] worked out at 5.96 mg/kg; with mice [4], 4.94 mg/kg. In addition, the “therapeutic index (swimming)” value in series [3] is 98.8 and 98.9. The “therapeutic index (tail suspension)” value in series [3] was 82.1. In addition, the LD50 in series [3] (in vivo, read-out: LD50) was found to be 489 mg/kg. Besides, the “immobilized time of mice swimming” value with mice [4] (10 mg/kg, oxalate form) worked out at 76.0 ± 57.8 s; in the series on mice [4] (20 mg/kg) it was 41.2 ± 33.3 s.
